In brackets after ≈: the same amount, converted by molar mass.
Tests used:
[1] = tested on: Bacillus cereus ATCC 9634; assay: minimum growth-inhibitory concentration; assay type: cell-based; conditions: ATCC9634
Experimental: (§1) The antimicrobial spectra of new tylosin derivatives of this invention are shown in Table 2 by listing the minimum growth inhibitory concentrations (MIC, mcg/ml). […] The toxicity of these compounds was tested in animals by intravenous administration, and the LD50 values in mice are more than 400 mg/kg with all compounds. In therapeutical experiments with mice manually infected by Staphilococcus aureus SMITH, the ED50 values were less than 50 mg/kg (p.o.) with all said tylosin derivatives.

[2] = tested on: Bacillus megaterium NRRL B-938; assay: minimum growth-inhibitory concentration; assay type: cell-based; conditions: Priestia megaterium, NRRLB938
Experimental: as §1

[3] = tested on: Bacillus subtilis ATCC 6633; assay: minimum growth-inhibitory concentration; assay type: cell-based; conditions: ATCC6633
Experimental: as §1

[4] = tested on: Candida albicans IAM 4905; assay: minimum growth-inhibitory concentration; assay type: cell-based; conditions: IAM4905
Experimental: as §1

[5] = tested on: Candida tropicalis IAM 4924; assay: minimum growth-inhibitory concentration; assay type: cell-based; conditions: IAM4924
Experimental: as §1

[6] = tested on: Corynebacterium bovis 1810; assay: minimum growth-inhibitory concentration; assay type: cell-based
Experimental: as §1

[7] = tested on: Escherichia coli (National Institute of Health); assay: minimum growth-inhibitory concentration; assay type: cell-based
Experimental: as §1

[8] = tested on: Micrococcus flavus I; assay: minimum growth-inhibitory concentration; assay type: cell-based
Experimental: as §1

[9] = tested on: Mycobacterium smegmatis ATCC 607; assay: minimum growth-inhibitory concentration; assay type: cell-based; conditions: Mycolicibacterium smegmatis, ATCC607
Experimental: as §1

[10] = tested on: Proteus morganii (The Institute for Infectious Diseases); assay: minimum growth-inhibitory concentration; assay type: cell-based; conditions: Morganella morganii
Experimental: as §1

[11] = tested on: Pseudomonas fluorescens NIHJB 254; assay: minimum growth-inhibitory concentration; assay type: cell-based; conditions: NIHJB254
Experimental: as §1

[12] = tested on: Sarcina lutea ATCC 9341; assay: minimum growth-inhibitory concentration; assay type: cell-based; conditions: Micrococcus luteus, ATCC9341
Experimental: as §1

[13] = tested on: Staphylococcus aureus FAD209P; assay: minimum growth-inhibitory concentration; assay type: cell-based; conditions: read-out: minimum growth-inhibitory concentration (MIC)
Experimental: as §1

[14] = tested on: Staphylococcus aureus SMITH; assay: minimum growth-inhibitory concentration; assay type: cell-based
Experimental: as §1

[15] = tested on: Staphylococcus aureus MS 8710; assay: minimum growth-inhibitory concentration; assay type: cell-based; conditions: MS8710; Staphylococcus aureus MS 8710, drug resistant strain
Experimental: as §1
(§2) The strains marked * in Table 2 are the drug resistant strains isolated from patients, namely, Staphilococcus aureus MS-9610 which is resistant to penicillin, tetracycline, erythromycin, leucomycin, spiramycin, josamycin and tylosin, Staphilococcus aureus MS-8710 which is resistant to penicillin, tetracycline, erythromycin, leucomycin and tylosin, and Streptococcus pyogenes MH 771 which is resistant to erythromycin, oleandomycin, leucomycin and tylosin.

[16] = tested on: Staphylococcus aureus MS 9610; assay: minimum growth-inhibitory concentration; assay type: cell-based; conditions: MS9610; Staphylococcus aureus MS 9610, drug resistant strain
Experimental: as §1, §2

[17] = tested on: Streptococcus pyogenes MH 771; assay: minimum growth-inhibitory concentration; assay type: cell-based; conditions: MH771, read-out: minimum growth-inhibitory concentration (MIC)
Experimental: as §1
(broth-dilution method)
as §2

[18] = tested on: drug resistant strains; assay: antimicrobial activity against drug resistant strains; assay type: cell-based; conditions: strains marked * in Table 2
Text: One of the particular advantages of the said tylosin derivatives over known macrolide antibiotics is their distinct antimicrobial activity against drug resistant bacteria.
as §2

[19] = solubility in solvents; assay type: physicochemical; conditions: for solubility in lower alcohols, ketones, ethers, esters, benzene and toluene: e.g. ethanol, acetone, ethyl ether, ethyl acetate
Text: (§3) The physicochemical analysis and deterimations included elementary analysis, melting point, specific rotatory power, ultraviolet spectrum, infrared spectrum, magnetic nuclear resonance (NMR), C^13 -NMR, mass spectrum (chemical ionization), the release of organic acids under alkaline conditions (gas chromatographical detection), solubility in solvents, color development reaction, basicity of the compounds, appearance and crystalline form. The molecular weight was obtained as QM^+ (Quasi Molecular ion) by chemically-ionized mass spectra analysis.
(§4) (2) the crystals obtained from the solvents in (13) were used for the tests in (1)-(12), and […]

[20] = basicity of the compounds (alkalinity); assay type: physicochemical
Text: as §3, §4

| SMILES | MIC [1] | MIC [2] | MIC [3] | MIC [4] | MIC [5] | MIC [6] | MIC [7] | MIC [8] | MIC [9] | MIC [10] | MIC [11] | MIC [12] | MIC [13] | MIC [14] | MIC [15] | MIC [16] | MIC [17] | solubility in acidic water [19] | solubility in alkaline water [19] | solubility in lower alcohols, ketones, ethers, esters, benzene and toluene [19] | other results |
| --- | --- | --- | --- | --- | --- | --- | --- | --- | --- | --- | --- | --- | --- | --- | --- | --- | --- | --- | --- | --- | --- |
| CCC1OC(=O)CC(OC(C)=O)C(C)C(OC2OC(C)C(OC3CC(C)(O)C(OC(=O)CC(C)C)C(C)O3)C(N(C)C)C2O)C(CC=O)CC(C)C(=O)C=CC(C)=CC1COC1OC(C)C(O)C(OC)C1OC (centres unmarked) [3-acetyl-4"-isovaleryltylosin] | 1.95 mg/L (≈ 1.87 µM) | 0.49 mg/L (≈ 0.47 µM) | 0.98 mg/L (≈ 0.94 µM) | > 250 mg/L | > 250 mg/L | 0.5 mg/L (≈ 0.48 µM) | 125 mg/L (≈ 120 µM) | 0.25 mg/L (≈ 0.24 µM) | 3.91 mg/L (≈ 3.75 µM) | > 250 mg/L | > 250 mg/L | 0.25 mg/L (≈ 0.24 µM) | 0.49 mg/L (≈ 0.47 µM) | 0.49 mg/L (≈ 0.47 µM) | 15.6 mg/L (≈ 15 µM) | 62.5 mg/L (≈ 60 µM) | 3.91 mg/L (≈ 3.75 µM) | soluble | hardly soluble | soluble | antimicrobial activity against a wide range of drug resistant strains [18]: particularly strong antimicrobial activity; solubility in n-hexane and petroleum ether [19]: hardly soluble; solubility in neutral water [19]: slightly soluble; alkalinity [20]: alkaline compounds |
| CCCC(=O)OC1C(C)OC(OC2C(C)OC(OC3C(CC=O)CC(C)C(=O)C=CC(C)=CC(COC4OC(C)C(O)C(OC)C4OC)C(CC)OC(=O)CC(OC(C)=O)C3C)C(O)C2N(C)C)CC1(C)O (centres unmarked) [3-acetyl-4"-n-butyryltylosin] | 0.98 mg/L (≈ 0.953 µM) | 0.49 mg/L (≈ 0.477 µM) | 0.49 mg/L (≈ 0.477 µM) | > 250 mg/L | > 250 mg/L | 0.5 mg/L (≈ 0.486 µM) | 250 mg/L (≈ 243 µM) | 0.25 mg/L (≈ 0.243 µM) | 1.95 mg/L (≈ 1.9 µM) | > 250 mg/L | > 250 mg/L | < 0.12 mg/L | 0.25 mg/L (≈ 0.243 µM) | 0.25 mg/L (≈ 0.243 µM) | 15.6 mg/L (≈ 15.2 µM) | 250 mg/L (≈ 243 µM) | 15.6 mg/L (≈ 15.2 µM) | soluble | hardly soluble | soluble | antimicrobial activity against a wide range of drug resistant strains [18]: particularly strong antimicrobial activity; solubility in n-hexane and petroleum ether [19]: hardly soluble; solubility in neutral water [19]: slightly soluble; alkalinity [20]: alkaline compounds |
| CCC1OC(=O)CC(OC(C)=O)C(C)C(OC2OC(C)C(OC3CC(C)(O)C(O)C(C)O3)C(N(C)C)C2O)C(CC=O)CC(C)C(=O)/C=C/C(C)=C/C1COC1OC(C)C(O)C(OC)C1OC (centres unmarked) [3-acetyltylosin] | 0.49 mg/L (≈ 0.511 µM) | 0.25 mg/L (≈ 0.261 µM) | 0.49 mg/L (≈ 0.511 µM) | > 250 mg/L | > 250 mg/L | 0.25 mg/L (≈ 0.261 µM) | 250 mg/L (≈ 261 µM) | < 0.12 mg/L | 7.81 mg/L (≈ 8.15 µM) | > 250 mg/L | > 250 mg/L | < 0.12 mg/L | 0.25 mg/L (≈ 0.261 µM) | 0.12 mg/L (≈ 0.125 µM) | 250 mg/L (≈ 261 µM) | > 250 mg/L | 125 mg/L (≈ 130 µM) | soluble | hardly soluble | soluble | solubility in n-hexane and petroleum ether [19]: hardly soluble; solubility in neutral water [19]: slightly soluble; alkalinity [20]: alkaline compounds |

— patent US4201843A, “Process for manufacturing tylosin derivatives” (Sanraku Ocean Co., Ltd., priority 1975, dated 1980)
